Experiments:
[1] = target: wild-type human cardiac sodium channel, hNav1.5 (Homo sapiens, UniProt Q14524); test: Late INa screening assay (QPatch whole cell patch clamp, Tefluthrin-induced late current); assay type: cell-based; details: 1 uM; HEK293 hNav1.5; percent block of late INa
Method in brief: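 HEK293 cells stably expressing hNav1.5 without beta subunits were whole-cell patch clamped at 23-25 °C, stepping from −120 to −20 mV for 250 ms at 0.1 Hz. Late current (240–265 ms) was induced with 10 μM Tefluthrin, and compounds were added typically at 0.3 or 1 μM. Percent block was taken against 0 Na baseline with rundown correction.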

hNav1.1 (SCN1A) = hNav1.1 (SCN1A) (Homo sapiens, UniProt P35498); test: Use-dependent inhibition of the CNS Nav1.1 sodium channel; assay type: cell-based; details: use-dependent block, 25 Hz, pulse 20, read-out: Nav1.1 UDB 25 Hz 10 uM
Method in brief: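 HEK-293 cells stably expressing WT hNav1.1, automated whole-cell patch clamp at 23-25 °C with CsF-based internal and NaCl external solutions, pH 7.35. Compound applied twice, 200 s equilibration; block measured at pulse 20 of a 25 Hz train (0 mV, 20 ms) from −120 mV, as mean % inhibition versus compound-free.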

wild-type human cardiac sodium channel, hNav1.5, sequence (Q14524 whole entry): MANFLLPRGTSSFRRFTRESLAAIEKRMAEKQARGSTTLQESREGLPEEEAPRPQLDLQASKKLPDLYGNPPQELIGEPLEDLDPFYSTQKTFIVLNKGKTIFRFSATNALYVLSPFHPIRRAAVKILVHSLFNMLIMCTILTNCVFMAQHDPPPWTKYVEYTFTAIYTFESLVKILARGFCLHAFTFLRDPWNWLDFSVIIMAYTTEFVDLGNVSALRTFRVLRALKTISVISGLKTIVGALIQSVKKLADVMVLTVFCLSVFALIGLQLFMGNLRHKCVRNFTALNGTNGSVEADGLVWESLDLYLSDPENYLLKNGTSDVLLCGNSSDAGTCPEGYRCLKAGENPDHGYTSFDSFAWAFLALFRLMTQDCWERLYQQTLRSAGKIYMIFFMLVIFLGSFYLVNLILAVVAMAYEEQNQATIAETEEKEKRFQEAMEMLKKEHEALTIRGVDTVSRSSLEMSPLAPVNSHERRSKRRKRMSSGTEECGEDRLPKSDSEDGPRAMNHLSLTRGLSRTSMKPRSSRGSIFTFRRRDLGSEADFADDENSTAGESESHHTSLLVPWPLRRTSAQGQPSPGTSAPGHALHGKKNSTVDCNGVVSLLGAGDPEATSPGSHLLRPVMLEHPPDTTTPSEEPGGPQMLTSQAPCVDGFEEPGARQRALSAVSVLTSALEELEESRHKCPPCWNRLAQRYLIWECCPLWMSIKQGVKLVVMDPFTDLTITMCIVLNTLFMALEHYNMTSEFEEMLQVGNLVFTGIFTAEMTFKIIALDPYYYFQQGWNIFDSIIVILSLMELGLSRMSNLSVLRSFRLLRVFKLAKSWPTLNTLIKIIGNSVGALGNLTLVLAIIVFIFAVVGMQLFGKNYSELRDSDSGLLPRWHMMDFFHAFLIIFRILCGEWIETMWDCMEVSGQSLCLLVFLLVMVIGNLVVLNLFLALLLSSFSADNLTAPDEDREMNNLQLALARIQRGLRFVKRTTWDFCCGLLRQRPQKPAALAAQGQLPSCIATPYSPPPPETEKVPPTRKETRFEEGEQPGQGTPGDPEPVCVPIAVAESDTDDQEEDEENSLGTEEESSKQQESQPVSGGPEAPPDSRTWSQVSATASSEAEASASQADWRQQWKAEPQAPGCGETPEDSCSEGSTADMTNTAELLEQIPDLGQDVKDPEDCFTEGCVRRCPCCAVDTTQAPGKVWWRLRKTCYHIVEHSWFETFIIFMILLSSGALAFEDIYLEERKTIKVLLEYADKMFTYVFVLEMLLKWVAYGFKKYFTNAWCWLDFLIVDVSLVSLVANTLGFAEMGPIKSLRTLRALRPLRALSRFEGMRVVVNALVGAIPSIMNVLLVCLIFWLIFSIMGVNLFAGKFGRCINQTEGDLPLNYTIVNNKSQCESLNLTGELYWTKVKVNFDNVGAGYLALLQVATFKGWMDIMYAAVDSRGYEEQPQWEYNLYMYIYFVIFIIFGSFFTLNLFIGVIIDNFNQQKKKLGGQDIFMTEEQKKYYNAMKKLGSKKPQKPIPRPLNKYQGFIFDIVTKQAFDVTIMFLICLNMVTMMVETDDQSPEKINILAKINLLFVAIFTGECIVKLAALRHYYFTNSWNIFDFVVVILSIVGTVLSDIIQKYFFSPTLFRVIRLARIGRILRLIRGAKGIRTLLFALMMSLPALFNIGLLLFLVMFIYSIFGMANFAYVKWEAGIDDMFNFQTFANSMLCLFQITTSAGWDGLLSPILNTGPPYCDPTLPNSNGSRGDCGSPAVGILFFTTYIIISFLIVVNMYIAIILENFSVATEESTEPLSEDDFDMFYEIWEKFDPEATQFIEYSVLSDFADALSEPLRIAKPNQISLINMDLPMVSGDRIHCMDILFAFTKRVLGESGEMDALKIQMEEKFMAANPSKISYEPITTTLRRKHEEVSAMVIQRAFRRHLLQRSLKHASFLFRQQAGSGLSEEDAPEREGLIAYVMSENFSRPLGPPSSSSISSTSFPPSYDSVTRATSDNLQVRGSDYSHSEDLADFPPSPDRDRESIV

For `CC(Oc1noc2ccc(-c3ccc(OC(F)(F)F)cc3)cc12)c1ccccn1` (centres unmarked) [Example 98, 3-(1-(pyridin-2-yl)ethoxy)-5-(4-(trifluoromethoxy)phenyl)benzo[d]isoxazole], the inhibition at 1 µM [1] was 38.7% and the inhibition at 10 µM (hNav1.1 (SCN1A)) was 15.9%.

Reference: patent US9416115B2, “Fused heterocyclic compounds as ion channel modulators” (Gilead Sciences, Inc., priority 2013, dated 2016)
